From patent publication US20240208912A1 (Mirati Therapeutics, Inc., priority 2021, published 2024)

Key:
PRMT5/MEP50 complex = molecular target: T1, PRMT5/MEP50 complex (Homo sapiens, UniProt O14744); assay: PRMT5:MEP50 HotSpot Assay (full-length histone H2A substrate, plus and minus MTA); format: biochemical; settings: IC50 + 2 μM MTA, in the presence of 2 μM MTA
T1 construct: purchased Reaction Biology Corporation
Method in brief: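 Radiometric HotSpot format using recombinant full-length histone H2A as substrate, run with and without MTA. Reactions were stopped and spotted onto filter paper. Tritiated H2A was quantified by scintillation counting.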

[1] = tested on: HCT116 homozygous MTAP knockout cells; assay: Proliferation assay (CellTiter-Glo, 10 days) in HCT116 homozygous MTAP knockout cells; format: cell-based; settings: CellTiter-Glo after 10 days of treatment, read-out: Proliferation IC50 (nM) HCT116 MTAP_KO
Experimental: HCT116 cells were genetically engineered to knock out the function of both MTAP alleles using a CRISPR/Cas9 system and an sgRNA targeting the MTAP gene. Following Cas9/MTAP sgRNA transduction, clones were screened to confirm that each allele of the MTAP gene had been inactivated (i.e., homozygous MTAP knock out) creating an MTAP-deficient cell.
Control samples were analyzed in parallel.
Briefly, on Day 0, 250 HCT116 parental or HCT116 homozygous MTAP knockout cell were seeded in 96 well plates in McCoy's 5A supplemented with […] fetal bovine serum and pen/strep and the cells were incubated overnight at 37° C. plus 5% CO2.
The following day, cells were treated with DMSO vehicle control or a dose response of PRMT5 inhibitors and incubated at 37 C plus 5% CO2 for five days. On Day 6, the cells were trypsinized and split 1:10 into new 96-well plates with fresh medium containing the same concentration of PRMT5 inhibitor and incubated for an additional 5 days at 37° C. plus 5% CO^2.
On Day 11, the viability of the cells was measured using a CTG assay kit (CellTiter-Glo; Promega cat.no G7573) in accordance with the manufacturer's instructions. The IC50 values for each compound after 10 days of treatment were calculated using GraphPad PRISM software.

T1 sequence (O14744 2-637 limits assumed): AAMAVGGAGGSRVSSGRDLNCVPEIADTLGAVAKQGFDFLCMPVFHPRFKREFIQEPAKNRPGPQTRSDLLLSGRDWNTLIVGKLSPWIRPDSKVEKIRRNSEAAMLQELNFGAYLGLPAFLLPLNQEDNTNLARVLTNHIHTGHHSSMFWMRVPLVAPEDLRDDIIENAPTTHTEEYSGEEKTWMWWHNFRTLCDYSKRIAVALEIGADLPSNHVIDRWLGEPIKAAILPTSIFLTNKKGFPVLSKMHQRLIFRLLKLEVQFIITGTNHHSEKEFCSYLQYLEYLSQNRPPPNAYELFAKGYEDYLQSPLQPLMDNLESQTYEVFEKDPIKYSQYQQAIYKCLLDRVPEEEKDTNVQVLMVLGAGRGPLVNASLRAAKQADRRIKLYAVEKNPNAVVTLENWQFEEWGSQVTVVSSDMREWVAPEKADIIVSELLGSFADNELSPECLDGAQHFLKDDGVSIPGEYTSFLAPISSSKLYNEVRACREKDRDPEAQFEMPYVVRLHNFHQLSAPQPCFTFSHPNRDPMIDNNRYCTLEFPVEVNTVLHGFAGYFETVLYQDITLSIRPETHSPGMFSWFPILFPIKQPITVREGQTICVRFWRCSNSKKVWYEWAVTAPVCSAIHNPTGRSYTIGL
T1 sequence (Q9BQA1 2-342 partner limits assumed): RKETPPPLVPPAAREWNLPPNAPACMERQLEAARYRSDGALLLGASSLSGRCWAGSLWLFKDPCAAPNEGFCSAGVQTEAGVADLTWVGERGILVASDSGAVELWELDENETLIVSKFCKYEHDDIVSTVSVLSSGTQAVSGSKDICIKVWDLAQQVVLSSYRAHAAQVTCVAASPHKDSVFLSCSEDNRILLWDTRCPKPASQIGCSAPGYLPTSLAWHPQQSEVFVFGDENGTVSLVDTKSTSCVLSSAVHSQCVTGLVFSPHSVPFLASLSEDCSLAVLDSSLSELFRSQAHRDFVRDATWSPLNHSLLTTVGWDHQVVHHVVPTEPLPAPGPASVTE

SMILES	IC50 (PRMT5/MEP50 complex)	IC50 [1]
Cn1ncc(-c2ccc3c(=O)[nH]nc(CN)c3c2)c1-c1c(C#N)c(OC2CC2)c2ccccc2c1Cl (single isomer, unassigned) [Example 16-23, (P)-3-[4-[4-(aminomethyl)-1-oxo-2H-phthalazin-6-yl]-2-methyl-pyrazol-3-yl]-4-chloro-1-(cyclopropoxy)naphthalene-2-carbonitrile]	485 nM	538 nM
Cc1cc(OC2CC2)c(C#N)c(-c2c(-c3cc(Cl)c4c(=O)[nH]nc(CN)c4c3)cnn2C)c1F (single isomer, unassigned) [Example 16-25, (P)-2-[4-[4-(aminomethyl)-8-chloro-1-oxo-2H-phthalazin-6-yl]-2-methyl-pyrazol-3-yl]-6-(cyclopropoxy)-3-fluoro-4-methyl-benzonitrile]	964 nM	664 nM
Cc1cc(OC2CC2)c(C#N)c(-c2c(-c3cc(Cl)c4c(=O)[nH]nc(CN)c4c3)cnn2C)c1F (single isomer, unassigned) [Example 16-26, (M)-2-[4-[4-(aminomethyl)-8-chloro-1-oxo-2H-phthalazin-6-yl]-2-methyl-pyrazol-3-yl]-6-(cyclopropoxy)-3-fluoro-4-methyl-benzonitrile]	8.43 nM	17 nM
Cn1ncc(-c2ccc3c(=O)[nH]nc(CN)c3c2)c1-c1c(F)ccc(CC2CC2)c1C#N (single isomer, unassigned) [Example 16-29, (P)-2-(4-(4-(aminomethyl)-1-oxo-1,2-dihydrophthalazin-6-yl)-1-methyl-1H-pyrazol-5-yl)-6-(cyclopropylmethyl)-3-fluorobenzonitrile]	111 nM	292 nM
Cn1ncc(-c2ccc3c(=O)[nH]nc(CN)c3c2)c1-c1c(F)ccc(CC2CC2)c1C#N (single isomer, unassigned) [Example 16-30, (M)-2-(4-(4-(aminomethyl)-1-oxo-1,2-dihydrophthalazin-6-yl)-1-methyl-1H-pyrazol-5-yl)-6-(cyclopropylmethyl)-3-fluorobenzonitrile]	36.4 nM	17 nM
Cn1ncc(-c2ccc3c(=O)[nH]nc(CN)c3c2)c1-c1c(F)cc2ncc(Cl)cc2c1C#N (single isomer, unassigned) [Example 16-31, (M)-6-[4-[4-(aminomethyl)-1-oxo-2H-phthalazin-6-yl]-2-methyl-pyrazol-3-yl]-3-chloro-7-fluoro-quinoline-5-carbonitrile]	19.3 nM	16 nM
Cn1ncc(-c2ccc3c(=O)[nH]nc(CN)c3c2)c1-c1c(F)cc2ncc(Cl)cc2c1C#N (single isomer, unassigned) [Example 16-32, (P)-6-[4-[4-(aminomethyl)-1-oxo-2H-phthalazin-6-yl]-2-methyl-pyrazol-3-yl]-3-chloro-7-fluoro-quinoline-5-carbonitrile]	195 nM	458 nM
Cn1ncc(-c2cc(Cl)c3c(=O)[nH]nc(CN)c3c2)c1-c1c(F)c(Cl)c2ccccc2c1C#N (single isomer, unassigned) [Example 16-58, (M)-2-[4-[4-(aminomethyl)-8-chloro-1-oxo-2H-phthalazin-6-yl]-2-methyl-pyrazol-3-yl]-4-chloro-3-fluoro-naphthalene-1-carbonitrile]	4.61 nM	15 nM
Cc1c(F)c(-c2c(-c3cc(Cl)c4c(=O)[nH]nc(CN)c4c3)cnn2C)c(C#N)c2ccccc12 (single isomer, unassigned) [Example 16-59, (P)-2-[4-[4-(aminomethyl)-8-chloro-1-oxo-2H-phthalazin-6-yl]-2-methyl-pyrazol-3-yl]-3-fluoro-4-methyl-naphthalene-1-carbonitrile]	318 nM	215 nM
Cc1c(F)c(-c2c(-c3cc(Cl)c4c(=O)[nH]nc(CN)c4c3)cnn2C)c(C#N)c2ccccc12 (single isomer, unassigned) [Example 16-60, (M)-2-[4-[4-(aminomethyl)-8-chloro-1-oxo-2H-phthalazin-6-yl]-2-methyl-pyrazol-3-yl]-3-fluoro-4-methyl-naphthalene-1-carbonitrile]	14.7 nM	39 nM
Cn1ncc(-c2cc(Cl)c3c(=O)[nH]nc(CN)c3c2)c1-c1c(F)cc2ncc(Cl)cc2c1C#N (single isomer, unassigned) [Example 16-62, (M)-6-[4-[4-(aminomethyl)-8-chloro-1-oxo-2H-phthalazin-6-yl]-2-methyl-pyrazol-3-yl]-3-chloro-7-fluoro-quinoline-5-carbonitrile]	28.7 nM	7 nM

Other lines, results leading:

IC50 (PRMT5/MEP50 complex)	IC50 [1]	SMILES
37.2 nM	61 nM	Cn1ncc(-c2ccc3c(=O)[nH]nc(CN)c3c2)c1-c1c(C#N)c(OC2CC2)c2ccccc2c1Cl (single isomer, unassigned) [Example 16-24, (M)-3-[4-[4-(aminomethyl)-1-oxo-2H-phthalazin-6-yl]-2-methyl-pyrazol-3-yl]-4-chloro-1-(cyclopropoxy)naphthalene-2-carbonitrile]
2230 nM	321 nM	Cn1ncc(-c2cc(Cl)c3c(=O)[nH]nc(CN)c3c2)c1-c1c(F)c(Cl)cc(OC2CC2)c1C#N (single isomer, unassigned) [Example 16-27, (P)-2-[4-[4-(aminomethyl)-8-chloro-1-oxo-2H-phthalazin-6-yl]-2-methyl-pyrazol-3-yl]-4-chloro-6-(cyclopropoxy)-3-fluoro-benzonitrile]
81 nM	10 nM	Cn1ncc(-c2cc(Cl)c3c(=O)[nH]nc(CN)c3c2)c1-c1c(F)c(Cl)cc(OC2CC2)c1C#N (single isomer, unassigned) [Example 16-28, (M)-2-[4-[4-(aminomethyl)-8-chloro-1-oxo-2H-phthalazin-6-yl]-2-methyl-pyrazol-3-yl]-4-chloro-6-(cyclopropoxy)-3-fluoro-benzonitrile]
366 nM	517 nM	Cn1ncc(-c2ccc3c(=O)[nH]nc(CN)c3c2)c1-c1c(F)c(Cl)c2c(c1C#N)OCCC2 (single isomer, unassigned) [Example 16-39, (P)-7-(4-(4-(aminomethyl)-1-oxo-1,2-dihydrophthalazin-6-yl)-1-methyl-1H-pyrazol-5-yl)-5-chloro-6-fluorochroman-8-carbonitrile]
60.1 nM	12 nM	Cn1ncc(-c2ccc3c(=O)[nH]nc(CN)c3c2)c1-c1c(F)c(Cl)c2c(c1C#N)OCCC2 (single isomer, unassigned) [Example 16-40, (M)-7-(4-(4-(aminomethyl)-1-oxo-1,2-dihydrophthalazin-6-yl)-1-methyl-1H-pyrazol-5-yl)-5-chloro-6-fluorochroman-8-carbonitrile]
166 nM	80 nM	Cc1cc(-c2cnn(C)c2-c2c(F)cc3ncc(Cl)cc3c2C#N)cc2c(CN)n[nH]c(=O)c12 (single isomer, unassigned) [Example 16-49, (P)-6-[4-[4-(aminomethyl)-8-methyl-1-oxo-2H-phthalazin-6-yl]-2-methyl-pyrazol-3-yl]-3-chloro-7-fluoro-quinoline-5-carbonitrile]
36.4 nM	9 nM	Cc1cc(-c2cnn(C)c2-c2c(F)cc3ncc(Cl)cc3c2C#N)cc2c(CN)n[nH]c(=O)c12 (single isomer, unassigned) [Example 16-50, (M)-6-[4-[4-(aminomethyl)-8-methyl-1-oxo-2H-phthalazin-6-yl]-2-methyl-pyrazol-3-yl]-3-chloro-7-fluoro-quinoline-5-carbonitrile]
157 nM	752 nM	Cn1ncc(-c2ccc3c(=O)[nH]nc(CN)c3c2)c1-c1c(C#N)cc2ccccc2c1F (single isomer, unassigned) [Example 16-53, (P)-3-[4-[4-(aminomethyl)-1-oxo-2H-phthalazin-6-yl]-2-methyl-pyrazol-3-yl]-4-fluoro-naphthalene-2-carbonitrile]
9.19 nM	82 nM	Cn1ncc(-c2ccc3c(=O)[nH]nc(CN)c3c2)c1-c1c(C#N)cc2ccccc2c1F (single isomer, unassigned) [Example 16-54, (M)-3-[4-[4-(aminomethyl)-1-oxo-2H-phthalazin-6-yl]-2-methyl-pyrazol-3-yl]-4-fluoro-naphthalene-2-carbonitrile]
253 nM	339 nM	Cn1ncc(-c2cc(Cl)c3c(=O)[nH]nc(CN)c3c2)c1-c1c(F)c(Cl)c2ccccc2c1C#N (single isomer, unassigned) [Example 16-57, (P)-2-[4-[4-(aminomethyl)-8-chloro-1-oxo-2H-phthalazin-6-yl]-2-methyl-pyrazol-3-yl]-4-chloro-3-fluoro-naphthalene-1-carbonitrile]
217 nM	80 nM	Cn1ncc(-c2cc(Cl)c3c(=O)[nH]nc(CN)c3c2)c1-c1c(F)cc2ncc(Cl)cc2c1C#N (single isomer, unassigned) [Example 16-61, (P)-6-[4-[4-(aminomethyl)-8-chloro-1-oxo-2H-phthalazin-6-yl]-2-methyl-pyrazol-3-yl]-3-chloro-7-fluoro-quinoline-5-carbonitrile]
269 nM	241 nM	C[C@H]1C[C@@H]1Oc1ccc(F)c(-c2c(-c3ccc4c(=O)[nH]nc(CN)c4c3)cnn2C)c1C#N (single isomer, unassigned) [Example 16-67]
